Experimental data: patent US20220257595A1, “MACITENTAN FOR USE IN TREATING PORTOPULMONARY HYPERTENSION” (ACTELION PHARMACEUTICALS LTD, priority 2019, published 2022)

Legend:
patients with PoPH [1] = assay: PORTICO safety: hematology (platelets, lymphocytes, neutrophils); assay type: in vivo
Source text: For the evaluation of treatment-emergent safety endpoints in the DB phase, the observation period for each individual subject started at the time of the first administration of macitentan or placebo and ended with the start of OL treatment or 30 days after DB treatment discontinuation (whichever occurred first). The safety variables listed below apply to the DB treatment-emergent period and the macitentan treatment-emergent period. The DB treatment-emergent period was defined as the period from the DB treatment start date up to the EOT-DB+30 days or to the EOT-DB for patients entering OL. The macitentan treatment-emergent period was defined as the period from the first intake of macitentan up to end of macitentan treatment (EOMT)+30 days. EOMT was defined as EOT-DB (for patient who received macitentan only in the DB period) or EOT-OL when applicable. For patients entering OLE, the EOMT is EOT-OL. • Treatment-emergent AEs • Treatment-emergent deaths • Treatment-emergent serious adverse events (SAEs) • AEs leading to premature discontinuation of study treatment • Occurrence of post-baseline LFT (ALT and/or AST) abnormalities, classified as: • ≥3×ULN; • ≥5×ULN; • ≥8×ULN; • ≥3×ULN and <5×ULN; • […] and <8×ULN. • Occurrence of post-baseline ALT and/or AST abnormality 3×ULN and concomitant (i.e., at the same time) total bilirubin ≥2×ULN • Occurrence of post-baseline ALT and/or AST abnormality ≥3×ULN and concomitant (i.e., at the same time) total bilirubin ≥2×ULN and increased as compared to baseline • Occurrence of hemoglobin abnormalities, classified as: • ≤80 g/L, • >80 and ≤100 g/L, • decrease from baseline ≥20 g/L and <50 g/L, • decrease from baseline ≥50 g/L, • <100 g/L and concurrent (i.e., at the same time) decrease from baseline ≥20 g/L. • Other treatment-emergent marked laboratory abnormalities • Change from baseline/macitentan baseline to EOT-DB/EOMT in vital signs • Change from baseline/macitentan baseline to EOT-DB/EOMT in laboratory variables • Change from baseline/macitentan baseline to EOT-DB/EOMT in Child-Pugh classification • Change from baseline/macitentan baseline to EOT-DB/EOMT in MELD score

patients with PoPH [2] = assay: PORTICO safety: Child-Pugh classification and MELD score; assay type: in vivo
Source text: For the evaluation of treatment-emergent safety endpoints in the DB phase, the observation period for each individual subject started at the time of the first administration of macitentan or placebo and ended with the start of OL treatment or 30 days after DB treatment discontinuation (whichever occurred first). The safety variables listed below apply to the DB treatment-emergent period and the macitentan treatment-emergent period. The DB treatment-emergent period was defined as the period from the DB treatment start date up to the EOT-DB+30 days or to the EOT-DB for patients entering OL. The macitentan treatment-emergent period was defined as the period from the first intake of macitentan up to end of macitentan treatment (EOMT)+30 days. EOMT was defined as EOT-DB (for patient who received macitentan only in the DB period) or EOT-OL when applicable. […]

[3] = Phase 1, chronic hepatic impairment, varying grades of liver disease severity; cited from earlier work
[4] = prior nonclinical and clinical studies; cited from earlier work
[5] = LL at baseline, DB phase, Safety set, 10 mg
[6] = LL at baseline, macitentan DB + OL phase, Macitentan treated set
[7] = Normal at baseline, DB phase, Safety set, 10 mg
[8] = Normal at baseline, macitentan DB + OL phase, Macitentan treated set

With `CCCNS(=O)(=O)Nc1ncnc(OCCOc2ncc(Br)cn2)c1-c1ccc(Br)cc1` [macitentan, N-[5-(4-Bromophenyl)-6-[2-[(5-bromo-2-pyrimidinyl)oxy]ethoxy]-4-pyrimidinyl]-N′-propylsulfamide] the “Median decrease in lymphocyte count, baseline to Week 12” value (patients with PoPH [1]; DB phase, macitentan group) was 2.8e+08 L⁻¹, the “Median decrease in neutrophil count, baseline to Week 12” value (patients with PoPH [1]; DB phase, macitentan group) was 7.2e+08 L⁻¹ and the “Median decrease in platelets at Week 12” value (patients with PoPH [1]; DB phase, macitentan group) was 1.1e+10 L⁻¹. For the same compound, the “Median lymphocyte count at Week 12” value (patients with PoPH [1]; DB phase, macitentan group) was 1.04e+09 L⁻¹, the “Median neutrophil count at Week 12” value (patients with PoPH [1]; DB phase, macitentan group) was 2.25e+09 L⁻¹ and the “Patients with neutrophil decreases from normal at baseline to <1.5×10^9/L” value (patients with PoPH [1]; DB phase, macitentan group) was 6/41. For the same compound, the “Patients with normal platelets at baseline decreasing to <75×10^9/L” value (patients with PoPH [1]; DB phase, macitentan group) was 2/29, the “Leukocytes (10^9/L) <2.0 (LLL), worst treatment-emergent marked abnormality” value (patients with PoPH [1]; [5]) was 2/5 and the “Lymphocytes (10^9/L) <0.5 (LLL), worst treatment-emergent marked abnormality” value (patients with PoPH [1]; [5]) was 3/5. For the same compound, the “Neutrophils (10^9/L) <1.0 (LLL), worst treatment-emergent marked abnormality” value (patients with PoPH [1]; [5]) was 0/2, the “Leukocytes (10^9/L) <2.0 (LLL), worst treatment-emergent marked abnormality” value (patients with PoPH [1]; [6]) was 3/7 and the “Lymphocytes (10^9/L) <0.5 (LLL), worst treatment-emergent marked abnormality” value (patients with PoPH [1]; [6]) was 6/10. For the same compound, the “Neutrophils (10^9/L) <1.0 (LLL), worst treatment-emergent marked abnormality” value (patients with PoPH [1]; [6]) was 0/2, the “Leukocytes (10^9/L) <2.0 (LLL), worst treatment-emergent marked abnormality” value (patients with PoPH [1]; [7]) was 0/38 and the “Leukocytes (10^9/L) <3.0 −≥ 2.0 (LL), worst treatment-emergent marked abnormality” value (patients with PoPH [1]; [7]) was 5/38. The “Lymphocytes (10^9/L) <0.5 (LLL), worst treatment-emergent marked abnormality” value (patients with PoPH [1]; [7]) was 1/38, the “Lymphocytes (10^9/L) <0.8 −≥ 0.5 (LL), worst treatment-emergent marked abnormality” value (patients with PoPH [1]; [7]) was 8/38 and the “Neutrophils (10^9/L) <1.0 (LLL), worst treatment-emergent marked abnormality” value (patients with PoPH [1]; [7]) was 2/41. The “Neutrophils (10^9/L) <1.5 −≥ 1.0 (LL), worst treatment-emergent marked abnormality” value (patients with PoPH [1]; [7]) was 4/41, the “Leukocytes (10^9/L) <2.0 (LLL), worst treatment-emergent marked abnormality” value (patients with PoPH [1]; [8]) was 4/76 and the “Leukocytes (10^9/L) <3.0 −≥ 2.0 (LL), worst treatment-emergent marked abnormality” value (patients with PoPH [1]; [8]) was 9/76. The “Lymphocytes (10^9/L) <0.5 (LLL), worst treatment-emergent marked abnormality” value (patients with PoPH [1]; [8]) was 2/72, the “Lymphocytes (10^9/L) <0.8 −≥ 0.5 (LL), worst treatment-emergent marked abnormality” value (patients with PoPH [1]; [8]) was 19/72 and the “Neutrophils (10^9/L) <1.0 (LLL), worst treatment-emergent marked abnormality” value (patients with PoPH [1]; [8]) was 5/81. The “Neutrophils (10^9/L) <1.5 −≥ 1.0 (LL), worst treatment-emergent marked abnormality” value (patients with PoPH [1]; [8]) was 12/81, the “Patients with shifts in lymphocyte counts from normal at baseline to <0.8×10^9/L” value (patients with PoPH [1]; any time during DB phase, macitentan group) was 9/38 and the “Median decrease from baseline in platelet counts” value (patients with PoPH [1]; combined DB+OL phase) was “no median decrease”. For the same compound, the “Median decrease in lymphocyte count, baseline to Week 24” value (patients with PoPH [1]; macitentan DB+OL phase) was 2.4e+08 L⁻¹, the “Median decrease in neutrophil count, baseline to Week 24” value (patients with PoPH [1]; macitentan DB+OL phase) was 3.3e+08 L⁻¹ and the “Median lymphocyte count at Week 24” value (patients with PoPH [1]; macitentan DB+OL phase) was 1.05e+09 L⁻¹. The “Median neutrophil count at Week 24” value (patients with PoPH [1]; macitentan DB+OL phase) was 2.4e+09 L⁻¹, the “Patients with platelet decreases from normal at macitentan baseline to <75×10^9/L” value (patients with PoPH [1]; macitentan DB+OL phase) was 7 patients and the “Patients with shifts in lymphocyte counts from normal at baseline to <0.8×10^9/L” value (patients with PoPH [1]; macitentan DB+OL phase) was 21/72. For the same compound, the “Patients with shifts in neutrophil counts from normal at baseline to notably low” value (patients with PoPH [1]; macitentan DB+OL phase) was 17/81, the “Patients with worsening in Child-Pugh category” value (patients with PoPH [2]; DB phase, macitentan group n=23) was “none” and the “Median MELD score at Week 12” value (patients with PoPH [2]; DB phase, range 6-15) was 10. The “Patients worsening from Child-Pugh category A to B during macitentan treatment” value (patients with PoPH [2]; combined DB+OL phase, patient had placebo in DB phase) was 1 patient, the “Change in PK of macitentan and its metabolites in hepatic impairment” value [3] was “no clinically relevant change” and the “Toxicities associated with macitentan treatment” value [4] was “associated with teratogenicity, dose-related anemia/decrease in hemoglobin concentration, and hepatotoxicity”.
